Measurements reported in PMC7026882, “Macrofilaricidal Benzimidazole–Benzoxaborole Hybrids as an Approach to the Treatment of River Blindness: Part 2. Ketone Linked Analogs” (ACS Infectious Diseases, 2019).
Like-named read-outs stand apart in the source and are kept apart here.

Tests used:
O. volvulus = O. volvulus molting assay; type: cell-based; settings: Onchocerca volvulus; for IC50: molting assay
From the text: As summarized in Table 1, we were encouraged to find that the initial ketone analogs prepared, namely, 15 (6-linked) and 20 (5-linked), were quite active in an O. volvulus molting assay we used as a primary indicator of antiparasitic activity[30],[31] and were only weakly active in a G2/M arrest,[32] indicative of the interaction with mammalian tubulin. As described above, our hypothesis was to reduce Pgp efflux liability through elimination of the hydrogen-bond donor associated with the N–H of the amide linker, as this has been shown in the literature to be a contributor to recognition by Pgp.[33],[34] […] We were disappointed to find that the 5-linked analog 22 was poorly selective and the 6-linked analog 23 was only weakly active. […]
(§1) in comparison to the number of control larvae that had successfully molted. IC50 values were calculated using GraphPad Prism v6.0 (http://www.graphpad.com). See Bullman et al., PLoS
(§2) Negl. Trop. Dis., 2015, 9, e3534 for further details.
(§3) Adult Brugia malayi in vivo model procedure.
(§4) Gerbils (Meriones unguiculatus) were infected by transplantation of 10 male and 10 female adult Brugia malayi into the peritoneal cavity. Gerbils were acclimated for 7 days prior to treatment. Animals were dosed based on their body weight prior to each dosing. Animals were administered their doses at the same time each day and receive standard rodent laboratory diet and water ad libitum. Gerbils were humanely euthanized at the conclusion of each study.
(§5) Peritoneal counts of male and female adult B. malayi and visual condition of the peritoneum […]
(§6) L3 Brugia pahangi in vivo model procedure.
(§7) Male gerbils (Meriones unguiculatus) approximately 6 weeks of age (50-60 g) were purchased from Charles Rivers (USA, Kingston K62 Gerbils) and infected by intraperitoneal injection with 200 Brugia pahangi third-stage larvae (L3) per animal (Filariatech, Inc., Athens, GA). Gerbils were housed with no more than 5 animals per cage and maintained 9 months prior to treatment. All gerbils were dosed in accordance with their body weight determined prior to each dosing. Animals were administered their doses at the same time each day and are allowed to feed and drink ad libitum. Gerbils were euthanized following approved institutional protocols. Euthanized animals were weighed and examined for external and visceral pathologies. The adult Brugia worms were recovered by opening the body cavity and washing the peritoneal cavity with 100 mL of phosphate buffered saline. Male and female worms were counted using a dissecting microscope.
(§8) Litomosoides sigmodontis in vivo model procedure. 2
(§9) All animal experiments with L. sigmodontis were conducted at the Institute for Medical Microbiology, Immunology and Parasitology (IMMIP), University Hospital of Bonn, in accordance to the European Union animal welfare guidelines. All protocols were approved by the local authorities (Landesamt für Natur, Umwelt und Verbraucherschutz, Cologne, Germany (AZ 84- […]
(§10) Janvier (Saint-Berthevin, France) and were housed at the animal facility of the IMMIP in individually ventilated cages on a 12h light/dark cycle with food and water ad libidum. Mice were infected at 6-8 weeks of age via exposure to the natural mite vector Ornithonyssus bacoti

[1] = tested on: mammalian tubulin (G2/M arrest); assay: G2/M arrest assay, indicative of interaction with mammalian tubulin; type: cell-based
From the text: (§11) As summarized in Table 1, we were encouraged to find that the initial ketone analogs prepared, namely, 15 (6-linked) and 20 (5-linked), were quite active in an O. volvulus molting assay we used as a primary indicator of antiparasitic activity[30],[31] and were only weakly active in a G2/M arrest,[32] indicative of the interaction with mammalian tubulin. As described above, our hypothesis was to reduce Pgp efflux liability through elimination of the hydrogen-bond donor associated with the N–H of the amide linker, as this has been shown in the literature to be a contributor to recognition by Pgp.[33],[34] […] We were disappointed to find that the 5-linked analog 22 was poorly selective and the 6-linked analog 23 was only weakly active.

[2] = Metabolic stability (Clint) in gerbil microsomes; type: in vitro ADME
From the text: as §11

[3] = Metabolic stability (Clint) in human microsomes; type: in vitro ADME
From the text: as §11

P-gp (MDR1) = assay: MDCK-MDR1 cell monolayer permeability assay; type: in vitro ADME; settings: dog
From the text: as §11

[4] = tested on: P-glycoprotein transporter (Pgp); design: method as in PMID 30650084; settings: limits oral bioavailability; cited from earlier work
[5] = tested on: LF (lymphatic filariasis); design: method as in PMID 30650084; settings: by route of administration; cited from earlier work
[6] = Pharmacokinetics in Mongolian gerbils; type: in vivo; settings: blood, Mongolian gerbils; for AUC(0-t): read-out: AUC0–24; for Cmax: read-out: Cmax; for bioavailability: po, read-out: bioavailability (%F)
From the text: In addition, the concentrations achieved at these doses were well in excess of the O. volvulus IC50, a requirement for in vivo activity that we had hypothesized on the basis of earlier work in the amide-linked series.

Brugia pahangi = assay: In vivo efficacy in the L3 Brugia pahangi gerbil model
Experimental: For our in vivo model, gerbils were infected by injecting B. pahangi third-stage larvae (L3) that were subsequently allowed to develop to adult worms over several months. Once stable infections had been established, 21 was administered as a suspension via once-daily oral gavage at a dose of 100 mg/kg for 7, 14, or 28 days. All animals were maintained until day 63 after the start of dosing, at which time adult worms were recovered from the peritoneal cavity and microfilariae were quantified in blood samples. Flubendazole (5 mg/kg, SC × 5 days) was included as a positive control in this study. […]
as §1, §2, §3, §4, §5, §6, §7, §8, §9, §10

[7] = SC, 10 mg/kg, 5 days, QD, positive control

| SMILES | IC50 (O. volvulus) | IC50 [1] | microsomal CLint [2] | microsomal CLint [3] | Papp A→B (P-gp (MDR1)) | also measured |
| --- | --- | --- | --- | --- | --- | --- |
| COC(=O)Nc1nc2cc(C(=O)CCc3ccc4c(c3)B(O)OC4(C)C)ccc2[nH]1 [compound 32] | 290 nM | 460 nM | 26.7 µL/min/mg | 7.63 µL/min/mg | 16 ×10⁻⁶ cm/s |  |
| COC(=O)Nc1nc2cc(C(=O)NCc3ccc4c(c3)B(O)OC4(C)C)ccc2[nH]1 [compound 4] |  |  |  |  |  | efflux via P-glycoprotein transporter (Pgp) [4]: subject to efflux; activity in in vivo models of LF [5]: only active in in vivo models of LF following subcutaneous administration |
| COC(=O)Nc1nc2cc(C(=O)CCCc3ccc4c(c3)B(O)OC4(C)C)ccc2[nH]1 [compound 33] |  | 20 nM |  |  |  |  |
| COC(=O)Nc1nc2ccc(C(=O)c3c(F)ccc4c3B(O)OC4)cc2[nH]1 [compound 28] | 1310 nM | > 100000 nM |  |  |  |  |
| COC(=O)Nc1nc2cc(C(=O)c3ccc4c(c3)C(C)(C)OB4O)ccc2[nH]1 [compound 22] | 10 nM | 280 nM |  |  | 26.2 ×10⁻⁶ cm/s |  |
| COC(=O)Nc1nc2ccc(C(=O)c3ccc(Cl)c4c3B(O)OC4)cc2[nH]1 [compound 31] | 30 nM | 11600 nM | < 4 µL/min/mg | < 4 µL/min/mg | 28 ×10⁻⁶ cm/s |  |
| COC(=O)Nc1nc2cc(C(=O)c3ccc4c(c3)COB4O)ccc2[nH]1 [compound 20] | 112 nM | 9800 nM | 11.7 µL/min/mg |  | 11.7 ×10⁻⁶ cm/s | AUC(0-t) ([6]; 2 mg/kg, dose 2, IV): 1160 ng·h/mL; Cmax ([6]; 2 mg/kg, dose 2, IV): 2000 ng/mL; AUC(0-t) ([6]; 10 mg/kg, dose 10, PO): 990 ng·h/mL; Cmax ([6]; 10 mg/kg, dose 10, PO): 480 ng/mL; bioavailability ([6]; 10 mg/kg, dose 10, PO): 17% |
| COC(=O)Nc1nc2cc(C(=O)c3ccc(F)cc3)ccc2[nH]1 [compound 3, flubendazole, reference compound] | 4 nM | 670 nM | < 4 µL/min/mg |  |  | Papp A→B (P-gp (MDR1); A-B, read-out: MDCK-MDR1 Papp (A-B)): 15.6 ×10⁻⁶ cm/s; Number of Worms Recovered, Avg Female Worms (Brugia pahangi; [7]): 0.0; Number of Worms Recovered, Avg Male Worms (Brugia pahangi; [7]): 0.0; worms recovered from positive control group (Brugia pahangi; given SC): no worms recovered |
| COC(=O)Nc1nc2ccc(C(=O)c3cc(F)cc4c3B(O)OC4)cc2[nH]1 [compound 27] | 270 nM | 22000 nM | < 4 µL/min/mg | < 4 µL/min/mg | 32 ×10⁻⁶ cm/s |  |
| COC(=O)Nc1nc2ccc(C(=O)c3ccc(F)c4c3B(O)OC4)cc2[nH]1 [compound 26] | 20 nM | 30300 nM | 11.6 µL/min/mg | 11.1 µL/min/mg | 21.7 ×10⁻⁶ cm/s | AUC(0-t) ([6]; 2 mg/kg, dose 2, IV): 18600 ng·h/mL; Cmax ([6]; 2 mg/kg, dose 2, IV): 10900 ng/mL; AUC(0-t) ([6]; 10 mg/kg, dose 10, PO): 23500 ng·h/mL; Cmax ([6]; 10 mg/kg, dose 10, PO): 1690 ng/mL; bioavailability ([6]; 10 mg/kg, dose 10, PO): 24% |
| COC(=O)Nc1nc2cc(C(=O)c3ccc4c(c3)B(O)OC4)ccc2[nH]1 [compound 15] | 118 nM | 12300 nM | 8.25 µL/min/mg |  | 6 ×10⁻⁶ cm/s | AUC(0-t) ([6]; 2 mg/kg, dose 2, IV): 880 ng·h/mL; Cmax ([6]; 2 mg/kg, dose 2, IV): 2260 ng/mL; AUC(0-t) ([6]; 10 mg/kg, dose 10, PO): 790 ng·h/mL; Cmax ([6]; 10 mg/kg, dose 10, PO): 270 ng/mL; bioavailability ([6]; 10 mg/kg, dose 10, PO): 18% |
| COC(=O)Nc1nc2ccc(C(=O)c3ccc4c(c3)B(O)OC4(C)C)cc2[nH]1 [compound 23] | > 1000 nM | > 100000 nM |  |  | 20.7 ×10⁻⁶ cm/s | inhibition at 1 µM (O. volvulus): 0% |

Second part, led by results:

| IC50 (O. volvulus) | IC50 [1] | microsomal CLint [2] | microsomal CLint [3] | Papp A→B (P-gp (MDR1)) | SMILES | also measured |
| --- | --- | --- | --- | --- | --- | --- |
| 1590 nM | > 100000 nM |  | 5.56 µL/min/mg | 28.3 ×10⁻⁶ cm/s | COC(=O)Nc1nc2cc(C(=O)c3cccc4c3COB4O)ccc2[nH]1 [compound 19] |  |
| 40 nM | > 100000 nM | < 4 µL/min/mg | < 4 µL/min/mg | 15.5 ×10⁻⁶ cm/s | COC(=O)Nc1nc2cc(C(=O)c3ccc4c(c3)B(O)O[C@H]4C)ccc2[nH]1 (single isomer, unassigned) [compound 25] |  |
| 100 nM | 5600 nM | < 4 µL/min/mg | < 4 µL/min/mg | 57.2 ×10⁻⁶ cm/s | COC(=O)Nc1nc2cc(C(=O)c3cccc4c3B(O)O[C@@H]4C)ccc2[nH]1 (single isomer, unassigned) [compound 29] |  |
| 110 nM | 12200 nM | < 4 µL/min/mg | < 4 µL/min/mg | 34.3 ×10⁻⁶ cm/s | COC(=O)Nc1nc2cc(C(=O)c3cccc4c3B(O)O[C@H]4C)ccc2[nH]1 (single isomer, unassigned) [compound 30] | AUC(0-t) ([6]; 2 mg/kg, dose 2, IV): 14600 ng·h/mL; Cmax ([6]; 2 mg/kg, dose 2, IV): 7580 ng/mL; AUC(0-t) ([6]; 10 mg/kg, dose 10, PO): 141000 ng·h/mL; Cmax ([6]; 10 mg/kg, dose 10, PO): 14000 ng/mL; bioavailability ([6]; 10 mg/kg, dose 10, PO): ~100% |
| > 1000 nM | > 100000 nM |  |  |  | COC(=O)Nc1nc2cc(C(=O)c3ccc4c(c3)B(O)O[C@@H]4C)ccc2[nH]1 (single isomer, unassigned) [compound 24] | inhibition at 1 µM (O. volvulus): 2% |
